The test system of the assay is expression of luciferase (firefly luciferase mRNA) in liver. In words: In vivo luciferase imaging (IVIS) of liver after tail vein administration of Fluc mRNA/LNPs. Further details: species or system Balb/c mice. Conditions: 6 hours; for Average intensity (comparison with SM102 and MC3): N/P 7.5, tail vein, liver. The method, then:
In order to achieve mRNA delivery at animal level, the inventors prepared mRNA/lipid nanoparticles using the method as follows: formulating each of the ionizable lipid compounds (YX8, YX17, YX31, YX27, YX28, YX35, YX29 or YX33) prepared in Example 1, cholesterol, DOPE and DMG-PEG2000 into a 10 mg/mL ethanol solution. Taking YX27 as an example, when preparing an mRNA/LNP complex in a single time, YX27 solution (1.6 mg) was measured and mixed with cholesterol, DOPE and DMG-PEG2000 according to a molar ratio of 50:38.5:10:1.5, and the total volume of the solution was allowed to reach 450 μl by supplementing ethanol. 150 μg of firefly luciferase mRNAs were taken and added to a sodium acetate buffer (50 mM, pH=5.2), and the total volume of the solution was 1350 μl. The ionizable lipid compound solution and the mRNA solution were mixed by introducing into a microfluidic machine (speed: 0.2 mL/min of ethanol solution, and 0.6 mL/min of sodium acetate buffer solution) to prepare lipid nanoparticles encapsulating mRNAs, which were dialyzed against PBS buffer for 2 hours, and the obtained samples were directly used for animal experiments. The ratio of the ionizable lipid compound YX27 to mRNAs was calculated according to the molar ratio (N/P) of the nitrogen atoms in YX27 to the phosphorus atoms in the phosphate skeleton of the mRNAs. In this example, N/P was 7.5.
In order to verify the delivery effect of the above Fluc mRNA/LNP preparation, YX27 LNPs encapsulating 150 μg/kg Fluc mRNAs were injected into 6-8 week-old female Balb/c mice by administration via tail vein, or YX27 LNPs encapsulating 250 μg/kg Fluc mRNAs were injected into the hind legs of mice by intramuscular administration; after 6 hours, 200 μl of D-Lucifin (with a mass fraction of 30%) was injected by intraperitoneal administration, and the expression and intensity of luciferase in the whole body, liver and muscle administration sites were detected by PerkinElmer IVIS Lumina III small animal in vivo optical imaging system. In order to study the effect of the hydrophobic chain length of lipid compounds on mRNA delivery efficiency, LNP samples encapsulating Fluc mRNAs were prepared using lipid compounds YX9, YX8, YX17 and YX31 respectively according to YX27 experimental operation, and the efficiency of luciferase expression in mice was studied.
In order to study the effect of the mixing ratio (N/P ratio) of ionizable lipids and mRNAs as the LNP components on the mRNA delivery efficiency, mixed samples of YX27 and luciferase mRNAs at N/P ratios of 7.5 and 9 were prepared according to the operation steps of Example 2, the mRNA delivery and the expression and intensity of luciferase in the whole body, liver and other sites were studied by administration via tail vein (the delivery results are shown in FIG. 3 and the table below).
LNPs containing SM102 or MC3 as the cationic lipid and luciferase mRNAs at an N/P ratio of 7.5 were prepared according to the operation steps of Example 2, in which the dose of Fluc mRNAs was 25 μg/kg, 50 μg/kg or 150 μg/kg respectively; and then the mRNA delivery by the prepared LNPs and the expression and intensity of luciferase in the whole body, liver and other sites were studied by administration via tail vein. The delivery results are shown in FIG. 4A, FIG. 4B and the table below.
In order to verify the expression efficiency of luciferase after administration of Fluc mRNA/LNPs as a function of time, YX27 solution encapsulating 150 μg/kg of Fluc mRNAs was injected into 6-8 week-old female Balb/c mice by administration via tail vein; 2 h, 4 h, 6 h, 18 h and 24 h after administration respectively, 200 μl of D-Lucifin (with a mass fraction of 30%) was injected by intraperitoneal administration, and the expression and intensity of luciferase in the whole body and liver site were detected by PerkinElmer IVIS Lumina III small animal in vivo optical imaging system. […]

Data on two compounds can be found in patent US12668572B2, “Degradable lipid for active molecule delivery and lipid nanoparticle thereof” (BEIJING CARRIUS BIO LTD., priority 2023, dated 2026).

On to `CCCCC/C=C\C/C=C\CCCCCCCCC(CCCCCCCC/C=C\C/C=C\CCCCC)OC(=O)CCCN(C)C` [MC3, D-Lin-MC3-DMA], for which the “Average intensity (comparison with SM102 and MC3)” value is listed as 4.28E+08 p/s (Fluc mRNA dose 25 μg/kg), 8.40E+08 p/s (Fluc mRNA dose 50 μg/kg) and 7.16E+09 p/s (Fluc mRNA dose 150 μg/kg).

Take `CCCCCCCCCCCOC(=O)CCCCCN(CCO)CCCCCCCC(=O)OC(CCCCCCCC)CCCCCCCC` [SM102]: the “Average intensity 50 μg/kg (lipids with different structures)” value (Fluc mRNA 50 μg/kg, N/P 7.5, liver tissue) was 2.02E+09 p/s. The “Average intensity 150 μg/kg (lipids with different structures)” value (Fluc mRNA 150 μg/kg, N/P 7.5, liver tissue) amounted to 5.65E+09 p/s. Also, the “Average intensity (comparison with SM102 and MC3)” value (Fluc mRNA dose 25 μg/kg) worked out at 1.20E+09 p/s; the “Average intensity (comparison with SM102 and MC3)” value (Fluc mRNA dose 50 μg/kg) is 2.02E+09 p/s; the “Average intensity (comparison with SM102 and MC3)” value (Fluc mRNA dose 150 μg/kg) amounted to 5.65E+09 p/s.
